These results are taken from US20070299043A1, “Anti-scarring drug combinations and use thereof” (priority 2005, published 2007).

≈ marks a conversion by molar mass, not a printed value. Structures can show the parent of a compound that is named as a salt. A value given as a limit tells only on which side of the number the result lay.

The test system of data set [1] is NFAT. The data set is described as follows: NFAT activation, translocation and transactivation. Format: cell-based.
Data set [2] has as its target T1, glucocorticoid receptor (Homo sapiens, UniProt P04150).
T1 construct: endogenous in cells; host or cells: T cells
T1 sequence (P04150 1-777): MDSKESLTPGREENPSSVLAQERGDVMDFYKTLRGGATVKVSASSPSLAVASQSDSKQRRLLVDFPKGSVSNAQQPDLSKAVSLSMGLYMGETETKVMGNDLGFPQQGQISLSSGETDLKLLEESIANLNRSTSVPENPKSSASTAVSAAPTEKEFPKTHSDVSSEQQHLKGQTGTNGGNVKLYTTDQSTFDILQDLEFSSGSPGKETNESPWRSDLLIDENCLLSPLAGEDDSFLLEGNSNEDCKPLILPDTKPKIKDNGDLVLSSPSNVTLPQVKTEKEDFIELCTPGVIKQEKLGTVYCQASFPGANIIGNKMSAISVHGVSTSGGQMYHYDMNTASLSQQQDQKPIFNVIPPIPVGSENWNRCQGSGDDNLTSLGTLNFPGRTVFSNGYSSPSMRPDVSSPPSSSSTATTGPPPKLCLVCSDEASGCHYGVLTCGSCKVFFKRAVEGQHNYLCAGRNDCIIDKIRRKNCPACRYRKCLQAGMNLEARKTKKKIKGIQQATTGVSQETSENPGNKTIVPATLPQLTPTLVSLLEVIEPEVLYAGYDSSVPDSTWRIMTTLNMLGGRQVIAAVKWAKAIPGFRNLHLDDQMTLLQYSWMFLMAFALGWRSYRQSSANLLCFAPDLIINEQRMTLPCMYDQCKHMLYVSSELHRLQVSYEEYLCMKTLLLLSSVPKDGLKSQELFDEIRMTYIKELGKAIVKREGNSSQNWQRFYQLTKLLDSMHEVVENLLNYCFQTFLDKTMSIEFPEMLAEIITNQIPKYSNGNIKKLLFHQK
Nature of the data set: Glucocorticoid receptor trafficking and GRE reporter plasmid transactivation in T cells. It counts as cell-based. As to conditions: for potentiation of prednisolone's ability to transactivate a GRE reporter plasmid: T cells.

The test system of data set [3] is p38, JNK, ERK. Nature of the data set: p38, JNK and ERK activation. It counts as cell-based.
Data set [4] has as its system NFkB and AP1. Nature of the data set: NFkB and AP1 activation. It counts as cell-based.
Data set [5] relates to E. coli UB1005 C498. Nature of the data set: MIC by microtitre broth dilution. It counts as cell-based. As to conditions: for Minimum inhibitory concentration: Gram−, wt, Mueller Hinton broth, 37° C, 24h. As to the method: (§1) MIC assays were conducted essentially as described by Amsterdam, D. 1996, “Susceptibility testing of antimicrobials in liquid media”, p. 52-111, in Loman, V., ed. Antibiotics in laboratory medicine, 4th ed. Williams and Wilkins, Baltimore, Md.

Data set [6] has as its system multiple species of bacteria and fungi. The following applies: surface drug concentration is to be in excess of this value; cited from earlier work.
The nature of data set [7]: Increase of the potency of an immunosuppressive agent.
For data set [8] the following is noted: cited from earlier work; for solubility in alcohol/ethanol: alcohol or ethanol.
In data set [9] the test system is joint swelling. Nature of the data set: Chronic in vivo arthritis model (adjuvant model), joint swelling. The following applies: component alone (prednisolone at reduced dose).
Data set [10] relates to carrageenan-induced paw edema. Nature of the data set: Rat carrageenan-induced paw edema model, paw volume. Format: in vivo. As to conditions: Amoxapine 2.26 mg/kg, foot pad, T-1 hr; Tmax = 6 hrs; listed as amoxapine (Amox). As to the method: A dose-range finding study was performed to determine the anti-inflammatory activity of various ratios of methyl prednisolone acetate and amoxapine in a rat carrageenan-induced paw edema model. […] The molar ratio of methyl prednisolone acetate to amoxapine ranged from 1:1 to 1:300, using total doses of methyl prednisolone acetate of 0.01, 0.03 or 0.1 mg/kg.
The test agent (a combination of methyl prednisolone acetate and amoxapine), vehicle control, or reference agents (methyl prednisolone acetate, amoxapine, or Depo-Medrol®) were administered in the left hind foot pad of rats. After 60 minutes, paw edema was induced by injection of 100 μl of 1% carrageenan in the same foot pad. The paw volume was measured with a water displacement plethysmometer immediately prior to test agent injection (T−1h), at the time of carrageenan injection (T0h), and at T6h. Animals were euthanized by carbon dioxide inhalation. Paw tissue samples were collected and flash frozen in liquid nitrogen. Samples were assayed for TNF-α by enzyme-linked immunoassay (ELISA).
On the technique in general: Carrageenan injected into the paw causes an acute inflammation.

For data set [11], the system named is LPS-induced TNF-α production. Nature of the data set: Acute in vivo model of inflammation (LPS-induced TNF-α release). As to conditions: component alone (prednisolone at reduced dose).
The subject of data set [12] is S. aureus ATCC25923 C622. The data set is described as follows: MIC by microtitre broth dilution. Format: cell-based. The following applies: Gram+, wt; Mueller Hinton broth, 37° C, 24h. The protocol:
as §1
A general note: Dilution methods test growth across graded concentrations, often in twofold steps.

Data set [13] relates to S. pyogenes C721. Nature of the data set: MIC by microtitre broth dilution. Format: cell-based. As to conditions: Gram+, wt; Todd Hewitt broth, 37° C, 24h. The protocol: as §1
Data set [14] has as its system K. pneumoniae ATCC13883 C238. The data set is described as follows: MIC by microtitre broth dilution. Format: cell-based. As to conditions: Gram−, wt; Mueller Hinton broth, 37° C, 24h. As to the method:
as §1

Data set [15] concerns P. aeruginosa PAE/K799 H187. Nature of the data set: MIC by microtitre broth dilution. Format: cell-based. The following applies: Gram−, wt; Mueller Hinton broth, 37° C, 24h. The protocol:
as §1

The test system of data set [16] is S. epidermidis C621. Nature of the data set: MIC by microtitre broth dilution. Format: cell-based. The following applies: Gram+, wt; Mueller Hinton broth, 37° C, 24h. The protocol:
as §1

For data set [17] the following is noted: 200 mg/day orally; cited from earlier work.
The subject of data set [18] is mast cells and eosinophil activation.

`Fc1ccc(C2CCNCC2COc2ccc3c(c2)OCO3)cc1` (single isomer, unassigned; (-)) [paroxetine, (−)-trans-4 R-(4′-fluorophenyl)-3 S-[(3′,4′-methylenedioxyphenoxy)methyl]piperidine hydrochloride hemihydrate]: the “NFAT activation, translocation and transactivation” value in [1] is “represses”. Further, in [2], the “promotion of glucocorticoid receptor trafficking” value is given as “does not promote” and the “potentiation of prednisolone's ability to transactivate a GRE reporter plasmid” value is recorded as “does not promote glucocorticoid receptor trafficking or potentiate”. For the same compound, in data set [3], the ERK activation result is “but not ERK activation”; the “p38 and JNK activation” value is “inhibition”. Moreover, the “NFkB and AP1 activation” value in data set [4] is “inhibits”.
As to `Sc1ncc2[nH]cnc2n1` [2-mercaptopurine], the Minimum inhibitory concentration entry in [5] is given as “N”.
Regarding `O=c1[nH]cc(F)c(=O)[nH]1` [5-fluorouracil, 5-Fluorouracil], the “concentration known to be lethal to multiple species of bacteria and fungi” value (“concentration known to be lethal” for short) in data set [6] is on record as > 10^−4 M. In addition, the MIC in data set [5] (Escherichia coli, UB1005C498, 24 h, read-out: Minimum inhibitory concentration) came to 1 µM (≈ 0.13 µg/mL).
On to `Sc1ncnc2nc[nH]c12` [6-mercaptopurine], for which, in [5], the Minimum inhibitory concentration result was “N”.
Same read-out and setting: next, `Nc1ccn([C@@H]2O[C@H](CO)[C@@H](O)[C@@H]2O)c(=O)n1` [Cytarabine, cytarabine]: “N”.
In the case of `CCN(CC)C(C)CN1c2ccccc2Sc2ccccc21` (stereo not drawn) [Ethopropazine, ethopropazine], the “potency of an immunosuppressive agent” value in data set [7] was “increases the potency”.
As to `CN(C)C(=O)C(CCN1CCC(O)(c2ccc(Cl)cc2)CC1)(c1ccccc1)c1ccccc1` [Loperamide], the “potency of an immunosuppressive agent” value in data set [7] is reported as “increase the potency”.
With `Nc1ccc(/N=N/c2ccccc2)c(N)n1` [Phenazopyridine base, phenazopyridine], in [8], the “solubility in alcohol/ethanol” value is “slightly soluble in water and alcohol”; the “solubility in water” value is “slightly soluble in water and alcohol”.
Take `NC(=O)c1ncn([C@@H]2O[C@H](CO)[C@@H](O)[C@H]2O)n1` [Ribavirin, ribavirin]: the “solubility in alcohol/ethanol” value in [8] is on record as “only slightly soluble in alcohol”.
Regarding `Clc1ccc2c(c1)C(N1CCNCC1)=Nc1ccccc1O2` [amoxapine], the “NFAT activation, translocation and transactivation” value in data set [1] was “block”. Moreover, in data set [2], the “promotion of glucocorticoid receptor trafficking” value is “does not promote” and the “potentiation of prednisolone's ability to transactivate a GRE reporter plasmid” value is “does not potentiate”. Further, in data set [9], the “effect of the individual component alone” value is “modest or no benefit”. Further, in [3], the ERK activation entry is recorded as “unaffected”; the “p38 and JNK activation” value is “Inhibition”. Also, in data set [10], the “Edema ± SEM” value was “not significantly different from the vehicle treatment”. Besides, the “NFkB and AP1 activation” value in data set [4] is “partially inhibits”. Also, in data set [11], the “effect of the individual component alone” value is “modest or no benefit”.
On to `CC[C@@]1(O)C(=O)OCc2c1cc1n(c2=O)Cc2cc3ccccc3nc2-1` [camptothecin], for which the Minimum inhibitory concentration entry in [12], in data set [13], in data set [5], in data set [14] and in [15] was “N” each time.
Turning to `N.N.[Cl][Pt][Cl]` [cisplatin], the Minimum inhibitory concentration entry in data set [12] is “N”; in data set [13], “N”; in data set [5] it was “N”; in [14], “N”; in data set [16] it was “N”; in data set [15] it was 10^−4 Molar.
Turning to `COc1cccc2c1C(=O)c1c(O)c3c(c(O)c1C2=O)C[C@@](O)(C(=O)CO)C[C@@H]3O[C@H]1C[C@H](N)[C@H](O)[C@H](C)O1` [doxorubicin, Doxorubicin], the “concentration known to be lethal” value in data set [6] was > 10^−4 M. Moreover, the Minimum inhibitory concentration is reported as 10^−5 Molar in [12]; 10^−7 Molar in data set [13]; 10^−4 Molar in data set [5]; 10^−6 Molar in data set [14]; 10^−6 Molar in data set [16]; 10^−5 Molar in data set [15].
As for `COc1cc([C@@H]2c3cc4c(cc3[C@@H](O[C@@H]3O[C@@H]5CO[C@@H](C)O[C@H]5[C@H](O)[C@H]3O)[C@H]3COC(=O)[C@H]23)OCO4)cc(OC)c1O` [etoposide], in data set [5], the Minimum inhibitory concentration result is “N”.
As to `NC(=O)NO` [hydroxyurea], the Minimum inhibitory concentration entry in data set [12] is “N”; in data set [13], 10^−4 Molar; in data set [5] it was “N”; in data set [14], “N”; in data set [16], “N”; in [15], 10^−4 Molar.
For the compound `CC(=O)N1CCN(c2ccc(OCC3COC(Cn4ccnc4)(c4ccc(Cl)cc4Cl)O3)cc2)CC1` (stereo not drawn) [ketoconazole], in data set [8], the “solubility in water” value was “essentially insoluble in water”. The serum concentration entry in [17] is “about 3.2 micrograms”.
In the case of `CCOC(=O)N1CCC(=C2c3ccc(Cl)cc3CCc3cccnc32)CC1` [loratadine], the “mast cells and eosinophil activation” value in [18] is given as “inhibits”.
Consider `CNCCCC12CCC(c3ccccc31)c1ccccc12` [maprotiline], for which the “potency of an immunosuppressive agent” value in data set [7] is “increases the potency”.
For the compound `CN(Cc1cnc2nc(N)nc(N)c2n1)c1ccc(C(=O)N[C@@H](CCC(=O)O)C(=O)O)cc1` [methotrexate], the Minimum inhibitory concentration in [12] is listed as 10^−5 Molar; in [13], 10^−6 Molar; in [5], “N”; in [14], 10^−6 Molar; in [16], “N”; in data set [15], “N”.
`O=C1c2c(O)ccc(O)c2C(=O)c2c(NCCNCCO)ccc(NCCNCCO)c21` [mitoxantrone]: in [6], the “concentration known to be lethal” value is > 10^−5 M. Moreover, the Minimum inhibitory concentration in data set [5] is 10^−5 Molar.
Regarding `Oc1cc(Cl)ccc1Oc1ccc(Cl)cc1Cl` [triclosan], the “potency of an immunosuppressive agent” value in [7] is on record as “increases the potency”.
Consider `Nc1ncnc2c1ccn2[C@@H]1O[C@H](CO)[C@@H](O)[C@H]1O` [tubercidin], for which the Minimum inhibitory concentration entry in data set [12], in [13], in data set [5], in data set [14], in data set [16] and in data set [15] was “N” in each case.
